Molecular target: T1, human wild-type (WT)-pendrin (Homo sapiens, UniProt O43511)
T1 construct: expressed in transfected cells
T1 sequence (O43511 1-780): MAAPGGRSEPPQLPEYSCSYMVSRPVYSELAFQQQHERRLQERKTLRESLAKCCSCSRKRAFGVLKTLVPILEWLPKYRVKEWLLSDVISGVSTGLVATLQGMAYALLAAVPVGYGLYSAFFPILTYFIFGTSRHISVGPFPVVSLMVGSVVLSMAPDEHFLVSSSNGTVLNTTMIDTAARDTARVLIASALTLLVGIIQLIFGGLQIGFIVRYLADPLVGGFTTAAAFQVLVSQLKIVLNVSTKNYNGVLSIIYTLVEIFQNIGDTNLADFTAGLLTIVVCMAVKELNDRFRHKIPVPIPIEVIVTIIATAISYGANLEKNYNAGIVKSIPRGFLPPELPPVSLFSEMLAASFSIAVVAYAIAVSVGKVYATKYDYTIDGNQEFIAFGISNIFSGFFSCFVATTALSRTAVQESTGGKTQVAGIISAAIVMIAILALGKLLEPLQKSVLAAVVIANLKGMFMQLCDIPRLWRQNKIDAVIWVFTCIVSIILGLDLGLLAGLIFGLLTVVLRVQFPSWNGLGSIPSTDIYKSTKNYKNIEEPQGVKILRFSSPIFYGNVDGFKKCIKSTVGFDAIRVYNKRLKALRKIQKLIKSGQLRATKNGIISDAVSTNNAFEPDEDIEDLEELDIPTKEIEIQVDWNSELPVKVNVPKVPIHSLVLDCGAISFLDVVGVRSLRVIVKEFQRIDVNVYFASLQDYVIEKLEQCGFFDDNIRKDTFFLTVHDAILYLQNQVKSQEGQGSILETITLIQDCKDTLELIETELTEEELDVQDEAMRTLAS
Assay: Pendrin-mediated Cl^−/I^− exchange activity, YFP fluorescence in CHO-K1 cells
Assay type: cell-based
Conditions: for inhibition at 30 µM: CHO-K1, 30 μM, read-out: Pendrin inhibitory activity at 30 μM (%); for IC50: compounds showing pendrin inhibitory activity of 50% or more at 30 μM, read-out: IC50

Compound	inhibition at 30 µM [%]	other results
O=C1OC(c2ccccc2OC(F)F)=NC1=C/C=C/c1ccco1 [F135, 2-(2-(difluoromethoxy)phenyl)-4-((E)-3-(furan-2-yl)allylidene)oxazol-5 (4H)-one]	2.8	
COc1ccccc1C1=NC(=Cc2cnn(C(C)(C)C)c2)C(=O)O1 [F136, 4-((1-(tert-butyl)-1H-pyrazol-4-yl)methylene)-2-(2-methoxyphenyl)oxazol-5(4H)-one]	2.4	
CCCc1ccc(C2=NC(=Cc3scnc3C)C(=O)O2)cc1 [F137, 4-((4-Methylthiazol-5-yl)methylene)-2-(4-propylphenyl)oxazol-5(4H)-one]	3.1	
CCCCOc1ccc(C2=NC(=Cc3ccc[nH]3)C(=O)O2)cc1 [F138, 4-((1H-pyrrol-2-yl)methylene)-2-(4-butoxyphenyl)oxazol-5 (4H)-one]	2.7	
CCCCCCc1ccc(C2=NC(=Cc3cccs3)C(=O)O2)cc1 [F139, 2-(4-Hexylphenyl)-4-(thiophen-2-ylmethylene)oxazol-5 (4H)-one]	2.5	
CC(C)(C)c1ccc(C2=NC(=Cc3cc4ccccc4[nH]3)C(=O)O2)cc1 [F140, 4-((1H-indol-2-yl)methylene)-2-(4-(tert-butyl)phenyl)oxazol-5(4H)-one]	3.3	
CCCCCc1ccc(C2=NC(=Cc3ccco3)C(=O)O2)cc1 [F141, 4-(Furan-2-ylmethylene)-2-(4-pentylphenyl)oxazol-5(4H)-one]	1.9	
CCCCOc1ccc(C2=NC(=Cc3cccs3)C(=O)O2)cc1 [F142, 2-(4-Butoxyphenyl)-4-(thiophen-2-ylmethylene)oxazol-5 (4H)-one]	2.4	
CCCc1ccc(C2=NC(=Cc3ccc[nH]3)C(=O)O2)cc1 [F143, 4-((1H-pyrrol-2-yl)methylene)-2-(4-propylphenyl)oxazol-5(4H)-one]	87.4	IC50: 5.3 ± 0.69 µM
CCCc1ccc(C2=NC(=Cc3cccs3)C(=O)O2)cc1 [F144, 2-(4-Propylphenyl)-4-(thiophen-2-ylmethylene)oxazol-5(4H)-one]	21.3	
CCCc1ccc(C2=NC(=Cc3ccsc3)C(=O)O2)cc1 [F145, 2-(4-Propylphenyl)-4-(thiophen-3-ylmethylene)oxazol-5 (4H)-one]	20.8	
CCCc1ccc(C2=NC(=Cc3ccco3)C(=O)O2)cc1 [F146, 4-(Furan-2-ylmethylene)-2-(4-propylphenyl)oxazol-5(4H)-one]	26.1	
CCCCCCc1ccc(C2=NC(=Cc3ccc[nH]3)C(=O)O2)cc1 [F147, 4-((1H-pyrrol-2-yl)methylene)-2-(4-hexylphenyl)oxazol-5(4H)-one]	3.4	
CC(C)(C#N)c1ccc(C2=NC(=Cc3ccc[nH]3)C(=O)O2)cc1 [F148]	100	IC50: 0.2 ± 0.06 µM
Cc1cc(C)cc(C2=NC(=Cc3ccc[nH]3)C(=O)O2)c1 [F149, 4-((1H-pyrrol-2-yl)methylene)-2-(3,5-dimethylphenyl)oxazol-5(4H)-one]	4.8	
Cc1cc(C)cc(C2=NC(=Cc3cccs3)C(=O)O2)c1 [F150, 2-(3,5-Dimethylphenyl)-4-(thiophen-2-ylmethylene)oxazol-5(4H)-one]	6.9	
COC(=O)C(=Cc1ccc[nH]1)NC(=O)c1ccc(C(C)(C)C)cc1 [G1, Methyl 2-(4-(tert-butyl)benzamido)-3-(1H-pyrrol-2-yl)acrylate]	2.9	
COC(=O)C(=Cc1cccs1)NC(=O)c1ccc(C(C)(C)C)cc1 [G2, Methyl 2-(4-(tert-butyl)benzamido)-3-(thiophen-2-yl)acrylate]	3.8	
CC(C)(C)c1ccc(C(=O)NC(=Cc2cccs2)C(=O)O)cc1 [G3, 2-(4-(tert-butyl)benzamido)-3-(thiophen-2-yl)acrylate]	55.6	IC50: 26.8 ± 2.54 µM
COC(=O)C(=Cc1ccco1)NC(=O)c1ccc(C(C)(C)C)cc1 [G4, Methyl 2-(4-(tert-butyl)beznamido)-3-(furan-2-yl)acrylate]	4.4	
CC(C)(C)c1ccc(C(=O)NC(=Cc2ccco2)C(=O)O)cc1 [G5, 2-(4-(tert-butyl)benzamido)-3-(furan-2-yl)acrylate]	60.9	IC50: 22.6 ± 2.46 µM
CC(C)(C)OC(=O)C(=Cc1ccc[nH]1)NC(=O)c1ccc(C(C)(C)C)cc1 [G6, tert-butyl 2-(4-(tert-butyl)benzamido)-3-(1H-pyrrol-2-yl)acrylate]	4.7	
CC(C)(C)c1ccc(C(=O)NC(=Cc2ccc[nH]2)C(=O)O)cc1 [G7, 2-(4-(tert-butyl)benzamido)-3-(1H-pyrrol-2-yl)acrylate]	82.1	efficacy as pendrin inhibitor compared with F10: lower efficacy than F10; IC50: 6.8 ± 0.66 µM

Compound	inhibition at 30 µM [%]	other results
CC(C)(C)c1ccc(C(=O)NC(=Cc2ccsc2)C(=O)O)cc1 [G8, 2-(4-(tert-butyl)benzamido)-3-(thiophen-3-yl)acrylate]	68.8	IC50: 20.2 ± 2.12 µM
Cc1ncsc1C=C(NC(=O)c1ccc(C(C)(C)C)cc1)C(=O)O [G9, 2-(4-(tert-butyl)benzamido)-3-(4-methylthiazol-5-yl)acrylate]	3.9	
Cn1cc(C=C(NC(=O)c2ccc(C(C)(C)C)cc2)C(=O)O)cn1 [G10, 2-(4-(tert-butyl)benzamido)-3-(1-methyl-1H-pyrazol-4-yl)acrylate]	4.3	
CCCCc1ccc(C(=O)NC(=Cc2ccc[nH]2)C(=O)OC)cc1 [G11, Methyl 2-(4-butylbenzamido)-3-(1H-pyrrol-2-yl)acrylate]	3.5	
CCCCc1ccc(C(=O)NC(=Cc2cccs2)C(=O)O)cc1 [G12, 2-(4-Butylbenzamido)-3-(thiophen-2-yl)acrylate]	48.1	
CC(C)(C)c1ccc(C(=O)NC(=Cc2cccn2-c2ccccc2)C(=O)O)cc1 [G13, 2-(4-(tert-butyl)benzamido)-3-(1-phenyl-1H-pyrrol-2-yl)acrylate]	22.4	
COC(=O)C(=Cc1cccn1-c1ccccc1)NC(=O)c1ccc(C(C)(C)C)cc1 [G14, Methyl 2-(4-(tert-butyl)benzamido)-3-(1-phenyl-1H-pyrrol-2-yl)acrylate]	2.5	
COC(=O)C(=Cc1ccc[nH]1)NC(=O)c1ccc(C(F)(F)F)cc1 [G15, Methyl 3-(1H-pyrrol-2-yl)-2-(4-(trifluoromethyl)benzamido)acrylate]	3.4	
O=C(O)C(=Cc1ccco1)NC(=O)c1ccc(Br)cc1 [G16, 2-(4-Bromobenzamido)-3-(furan-2-yl)acrylate]		Pendrin inhibitory activity at 30 μM (%): 1.8%
COC(=O)C(=Cc1ccco1)NC(=O)c1ccc(C(F)(F)F)cc1 [G17, Methyl 3-(furan-2-yl)-2-(4-(trifluoromethyl)benzamido)acrylate]	1.1	
O=C(O)C(=Cc1ccco1)NC(=O)c1ccc(C(F)(F)F)cc1 [G18, 3-(Furan-2-yl)-2-(4-(trifluoromethyl)benzamido)acrylate]	2.7	
O=C(O)C(=Cc1cccs1)NC(=O)c1ccc(Br)cc1 [G19, 2-(4-Bromobenzamido)-3-(thiophen-2-yl)acrylate]	3.9	
COC(=O)C(=Cc1ccco1)NC(=O)c1ccc(Br)cc1 [G20, Methyl 2-(4-bromobenzamido)-3-(furan-2-yl)acrylate]	3.4	
O=C(O)C(=Cc1ccco1)NC(=O)c1ccc(Br)cc1 [G21, 2-(4-Bromobenzamido)-3-(furan-2-yl)acrylate]		Pendrin inhibitory activity at 30 μM (%): 4.1%
CCCCc1ccc(C(=O)NC(=Cc2ccc[nH]2)C(=O)O)cc1 [G22, 2-(4-Butylbenzamido)-3-(1H-pyrrol-2-yl)acrylate]	89.2	IC50: 5.3 ± 0.58 µM
COC(=O)C(=Cc1ccc[nH]1)NC(=O)c1ccc(C(C)(C)C)cc1 [G23, Methyl-2-(4-(tert-butyl)benzamido)-3-(1H-pyrrol-2-yl)acrylate]		Pendrin inhibitory activity at 30 μM (%): 2.7%
O=C(O)C(=Cc1ccsc1)NC(=O)c1ccc2ccccc2c1 [G24, 2-(2-Naphthamido)-3-(thiophen-3-yl)acrylate]	1.9	
CC(C)(C)c1ccc(C(=O)NC(=Cc2csc3ccccc23)C(=O)O)cc1 [G25, 3-(Benzo[b]thiophen-3-yl)-2-(4-(tert-butyl)benzamido)acrylate]	42.1	
CC(C)Cc1ccc(C(=O)NC(=Cc2ccc[nH]2)C(=O)O)cc1 [G26, 2-(4-Isobutylbenzamido)-3-(1H-pyrrol-2-yl)acrylate]	85.6	IC50: 10.2 ± 1.38 µM
Cc1ncsc1C=C(NC(=O)c1cccc2ccccc12)C(=O)O [G27, 2-(1-Naphthamido)-3-(4-methylthiazol-5-yl)acrylate]	2.2	
CCCc1ccc(C(=O)NC(=Cc2ccc[nH]2)C(=O)O)cc1 [G28, 2-(4-Propylbenzamido)-3-(1H-pyrrol-2-yl)acrylate]	53.5	IC50: 28.9 ± 2.18 µM
CCCCc1ccc(C(=O)NC(=Cc2ccsc2)C(=O)O)cc1 [G29]	81.7	IC50: 16.7 ± 1.87 µM

Reference: patent US12691101B2, “Compound and method for preventing or treating of respiratory diseases comprising the same as an active ingredient” (YONSEI UNIVERSITY, UNIVERSITY - INDUSTRY FOUNDATION (UIF), priority 2019, dated 2026)
